Assay results from ChEMBL document CHEMBL5365517, “Molecular Design of Cyclic Peptides with Cell Membrane Permeability and Development of MDMX-p53 Inhibitor” (ACS Med Chem Lett, 2023).
Starred links: 1 amine or outer side, 2 acyl side, 3 side chain; linkers in the order of their positions; H or OH if unused. Non-standard residues stand in square brackets, D forms with d. Residues, ends and D or L forms follow the SMILES beside them. Ala(4-thiazolyl) = N[C@@H](Cc1cscn1)C(=O)O; Phe(4-Cl) = N[C@@H](Cc1ccc(Cl)cc1)C(=O)O; X1 = CCC(CC)C[C@@H](C(=O)[*:2])N(C)[*:1]; Phe(4-F) = N[C@@H](Cc1ccc(F)cc1)C(=O)O; NMeF = CN[C@@H](Cc1ccccc1)C(=O)O; NMeL = CN[C@@H](CC(C)C)C(=O)O; Ahp(2) = CCCCC[C@H](N)C(=O)O; Tle = CC(C)(C)[C@H](N)C(=O)O; hSer = N[C@@H](CCO)C(=O)O; NMeA = CN[C@@H](C)C(=O)O; dNMeA = CN[C@H](C)C(=O)O

Tests used:
[1] = molecular target: T1, Protein Mdm4 (Homo sapiens, UniProt O15151); test: Inhibition of N-terminal biotin-his-tagged MDMX (24 to 108 residues)(unknown origin) binding to p53 incubated for 1 hr by Alphascreen assay
T1 sequence (O15151 whole entry): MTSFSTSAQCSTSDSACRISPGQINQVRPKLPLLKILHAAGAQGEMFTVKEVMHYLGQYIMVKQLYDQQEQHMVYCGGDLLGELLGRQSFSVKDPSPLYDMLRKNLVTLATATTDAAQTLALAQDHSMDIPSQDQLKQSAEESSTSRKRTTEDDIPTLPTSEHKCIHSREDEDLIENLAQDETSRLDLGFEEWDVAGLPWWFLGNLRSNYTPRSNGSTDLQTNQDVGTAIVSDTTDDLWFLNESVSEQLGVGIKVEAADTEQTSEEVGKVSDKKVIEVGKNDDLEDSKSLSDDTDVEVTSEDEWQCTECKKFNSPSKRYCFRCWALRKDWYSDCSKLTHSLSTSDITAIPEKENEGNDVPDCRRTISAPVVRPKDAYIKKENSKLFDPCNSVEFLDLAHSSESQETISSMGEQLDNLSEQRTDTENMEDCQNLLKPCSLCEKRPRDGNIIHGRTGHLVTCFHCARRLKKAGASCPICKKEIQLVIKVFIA

[2] = Apparent permeability across apical to basolateral side in MDCK-II cells at 10 uM incubated for 2 hrs by LC/MS/MS analysis; type: ADME, cell-based, Canis lupus familiaris; details: dog

IC50 [1] [nM]	Papp A→B at 2 h, 10 µM [2] [×10⁻⁶ cm/s]	Compound
30	0.07	COCC[C@@H]1NC(=O)[C@H]2CCCN2C(=O)[C@H](Cc2ccccc2)N(C)C(=O)[C@H](Cc2ccc(Cl)cc2)NC(=O)[C@H](C(C)(C)C)NC(=O)[C@H](Cc2ccc(F)cc2)NC(=O)[C@H](C)N(C)C(=O)[C@@H](C)N(C)C(=O)[C@H](Cc2cscn2)NC(=O)[C@H](C)N(C)C1=O (cyclo([Ala(4-thiazolyl)][dNMeA][NMeA][Phe(4-F)][Tle][Phe(4-Cl)][NMeF][dP][hSer](Me)[NMeA]))
70	0.8	CCCCC[C@@H]1NC(=O)[C@H](CC(C)C)N(C)C(=O)[C@H](Cc2ccc(F)cc2)NC(=O)[C@H](C)N(C)C(=O)[C@@H](C)N(C)C(=O)[C@H](Cc2cscn2)NC(=O)[C@H](C)N(C)C(=O)[C@H](CCOC)NC(=O)[C@H]2CCCN2C(=O)[C@H](CC(CC)CC)N(C)C1=O (cyclo([Ahp(2)][X1][dP][hSer](Me)[NMeA][Ala(4-thiazolyl)][dNMeA][NMeA][Phe(4-F)][NMeL]))
